In PubChem BioAssay AID2253 (Southern Research Specialized Biocontainment Screening …, 2010):

What follows are molecules tested on THP-1 viability, CellTiter-Glo luminescence, 72 h (assay: THP-1 cell cytotoxicity, dose response, cytotoxicity control for Salmonella PhoP regulon inhibitors, S. typhimurium screen hits (AID 2253)).
Work on COc1ccc2c(c1)[nH]c1c(N3CCN(Cc4ccc5c(c4)OCO5)CC3)ncnc12 yielded an EC50 of 6.85 µM. CCCC(=O)NC(c1cccs1)c1cc([N+](=O)[O-])c2cccnc2c1O (centres undefined) was tested, and the EC50 was 7.09 µM. With N#CC1=C(N)N=C(SCc2cccc3ccccc23)C(C(N)=O)C12CCCCC2 (centres undefined) the EC50 was 20.9 µM. Cc1cc(C(=O)N/N=C/c2ccc([N+](=O)[O-])s2)n[nH]1 showed an EC50 of 12.8 µM. Molecule COc1cccc(C(=O)Oc2c(CN3CCOCC3)cc(Cl)c3cccnc23)c1 has an EC50 of 7.11 µM. CCOC(=O)C(C)/C(C)=N/NC(=O)c1cc2ccccc2cc1O (centres undefined) showed an EC50 of 6.99 µM. O=c1cc2oc3cc(O)c(O)cc3c(-c3ccccc3[N+](=O)[O-])c-2cc1O showed an EC50 of 10.5 µM. For CCCCCCCCCCOC(=O)Cn1c(COc2ccccc2OC)[n+](C)c2ccccc21, the EC50 was 2.2 µM. CN(CCO)c1cc(Sc2nc3ccccc3s2)c2nonc2c1[N+](=O)[O-] showed an EC50 of 15.8 µM. Oc1ccccc1Nc1nc(NCc2ccco2)c2ccccc2n1 gave an EC50 of 13.2 µM. Cc1c2ccncc2c(C)c2c1[nH]c1ccccc12 was tested, and the EC50 was 2.53 µM. For O=C(CSc1ccccn1)N/N=C/c1cc([N+](=O)[O-])ccc1O, the EC50 was 17.1 µM. Molecule NC1=NC2(CCCCC2)N=C(Nc2ccc(Br)cc2)N1 has an EC50 of 2.8 µM. Work on CCn1c2ccccc2c2cc(/C=N/NC(=O)c3ccccc3)ccc21 yielded an EC50 of 4.12 µM. In the case of O=C(Nc1ccccc1)Nc1ncc([N+](=O)[O-])s1, the EC50 is reported as 15.8 µM. Work on CCCn1c(NCc2c[nH]c3ccccc23)nc2ccccc21 yielded an EC50 of 22.9 µM. COc1ccc(Nc2ccc3c(c2)=NC2(CCCCC2)[N+]=3[O-])cc1 gave an EC50 of 4.59 µM. In the case of O=C(NC(NC(=S)Nc1ccc(Cl)c(Cl)c1)C(Cl)(Cl)Cl)c1ccco1 (centres undefined), the EC50 is reported as 23.5 µM. O=C1C=C(N2CCOCC2)c2ccccc2C1=O was tested, and the EC50 was 6.88 µM. With CCNC(=S)NNC(=O)c1ccccn1 the EC50 was 25.5 µM. For CCCCCCNC(=O)c1cn(CC)c2cc(N3CCN(C)CC3)c(F)cc2c1=O, the EC50 was 16.1 µM. Work on C/C(CC(=O)Nc1ccc(Cl)c(C(F)(F)F)c1)=N\NC(=O)c1ccccc1O yielded an EC50 of 20.4 µM. For CC1=C(C(=O)OCC2CCCO2)C(c2cccc(C(F)(F)F)c2)C2=C(CC(c3ccco3)CC2=O)N1 (centres undefined), the EC50 was 42.7 µM. For Cc1ccc(C(=O)N/N=C/c2ccc([N+](=O)[O-])s2)cc1, the EC50 was 12.3 µM. Work on S=C(Nc1cccc(Cl)c1)Nc1cccc2cnccc12 yielded an EC50 of 19 µM. With S=C(NCc1ccncc1)Nc1ccc(Cl)c(Cl)c1 the EC50 was 46.2 µM. C=C1c2c(Cl)ccc(O)c2C(O)=C2C(=O)[C@]3(O)C(O)=C(C(N)=O)C(=O)[C@@H](N(C)C)[C@@H]3[C@@H](O)C12 (some centres undefined) was tested, and the EC50 was 13 µM. With O=C(c1ccccc1)c1c2c(cc3sc4ccccc4[n+]13)-c1cccc3cccc-2c13 the EC50 was 1.28 µM. COc1ccc(Nc2nnc(SCc3cn4c(C)cccc4n3)s2)cc1 showed an EC50 of 9.34 µM. CC(=O)NC(c1cccs1)c1cc([N+](=O)[O-])c2cccnc2c1O (centres undefined) was tested, and the EC50 was 10.1 µM. O=C(Cc1c[nH]c2ccccc12)N/N=C/c1ccccc1O was tested, and the EC50 was 16.2 µM. Work on CCCCCCCOC(=O)C[N+](C)(C)CCOC1CC2CCC1(C)C2(C)C (centres undefined) yielded an EC50 of 2.07 µM. In the case of CC(=O)NC(c1ccc(Cl)cc1Cl)c1ccc2cccnc2c1O (centres undefined), the EC50 is reported as 0.28 µM. Cc1ccc(-c2c[n+](CC(=O)Nc3nc(-c4ccc(F)cc4)cs3)c3n2CCC3)cc1 was tested, and the EC50 was 9.65 µM. CCCCCc1ccc(OCCOCCn2c[n+](C)c3ccccc32)c(CCCCC)c1 showed an EC50 of 1.35 µM. Work on c1ccc(-c2cccc(-c3ccccn3)n2)nc1 yielded an EC50 of 0.45 µM. Molecule Oc1ccc(Br)cc1-c1nc2cnccn2c1NC1CCCCC1 has an EC50 of 46.4 µM. Molecule N#C/C(=C\c1ccc(F)c(F)c1)C(=O)NC1CCCCC1 has an EC50 of 46.6 µM. In the case of Oc1cccc(Nc2nc(NCC3CCCO3)c3ccccc3n2)c1 (centres undefined), the EC50 is reported as 2.26 µM. O=C(NNc1c2ccccc2nc2ccccc12)c1ccccc1O was tested, and the EC50 was 28.3 µM. With CCCCCn1c(N)c(C(=O)NCc2cccs2)c2nc3ccccc3nc21 the EC50 was 15.4 µM. With O=C(NC1CCCCC1)C(c1ccncc1)N(Cc1ccccc1)C(=O)c1ccc(-c2ccccc2)[nH]1 (centres undefined) the EC50 was 22.5 µM. COc1ccc(OCCSc2nnc3sc4ccccc4n23)cc1 showed an EC50 of 44.1 µM. COc1cccc(-n2c(SCc3cc(=O)oc4cc(O)c(O)cc34)nc3ccccc3c2=O)c1 gave an EC50 of 15.1 µM.
